Measurements as given in patent US20170000749A1, “Methods for Treating Cognitive Disorders Using Inhibitors of Histone Deacetylase” (Forum Pharmaceuticals, Inc., priority 2008, published 2017).
Read-outs that look alike come from different tables or passages of the source.

Legend:
[1] = test system: HDAC activity in primary mouse cortical cultures; assay: Whole-Cell Histone Deacetylase (HDAC) Inhibition Assay in Primary Mouse Cortical Cultures; assay type: cell-based
Outline: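 Primary neocortical neurons from E17 Balb/C mouse embryos were plated at 50000 cells/well and treated at DIV9 with ten-point DMSO dilutions for 16-18 h at 37° C, in triplicate. BOC-Lys(Ac)-AMC substrate was then added for 1 h. Fluor de Lys developer containing 1 uM TSA produced a fluorophore, which was read.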

[2] = biological target: one or more of HDAC-1, HDAC-2, HDAC-3, HDAC-4, HDAC-5, HDAC-6, HDAC-7, HDAC-8, HDAC-9, HDAC-10 and HDAC-11; assay: Inhibition of Histone Deacetylase Enzymatic Activity (Boc-Lys(Ac)-AMC substrate, Fluor-de-Lys developer); assay type: biochemical; details: read-out: HDAC Inhibition (IC50 μM) HDAC Enzyme
Description: The following protocol is used to assay the compounds of the disclosure.
The mixture is pre-incubated for 5 minutes at room temperature. The reaction is started by bringing the temperature to 37° C. and adding 16 μl substrate. Total reaction volume is 50 μl.
In the Tables 8, 9 and 10, A≦0.05 μM; 0.05 μM<B≦0.1 μM; 0.1 μM<C≦1 μM; and 1 μM<D≦10 μM.

[3] = whole-cell (WC), mouse cortical neurons, Table 8, read-out: HDAC Inhibition (IC50 μM) WC mouse cortical neurons
[4] = read-out: HDAC Inhibition (IC50 μM) WC mouse cortical neurons, Table 10
[5] = whole-cell (WC), mouse cortical neurons, Table 10, read-out: HDAC Inhibition (IC50 μM) WC mouse cortical neurons

| IC50 [1, 3] [µM] | IC50 ([2]; Table 8) [µM] | IC50 ([2]; Table 10) [µM] | IC50 [1, 5] [µM] | SMILES | IC50 [1, 4] [µM] |
| --- | --- | --- | --- | --- | --- |
| 5 to 15 | 0.1 to 1 |  |  | O=C(NO)c1ccc(CCNC2=Nc3ccccc3Oc3ccccc32)cc1 [(E)-4-(2-(dibenzo[b,f][1,4]oxazepin-11-ylamino)ethyl)-N-hydroxybenzamide] |  |
| 5 to 15 | 0.1 to 1 |  |  | O=C(NO)c1ccc(CNC2=Nc3ccccc3N(C3CC3)c3ccccc32)cc1 [(E)-4-((5-cyclopropyl-5H-dibenzo[b,e][1,4]diazepin-11-ylamino)methyl)-N-hydroxybenzamide] |  |
| < 1 | < 0.05 |  |  | O=C(NO)c1ccc(CNC2=Nc3ccccc3Oc3ccccc32)cc1 [(E)-4-((dibenzo[b,f][1,4]oxazepin-11-ylamino)methyl)-N-hydroxybenzamide] |  |
| 5 to 15 | 1 to 10 |  |  | O=C(NO)c1ccc(C2=Nc3ccccc3Oc3ccccc32)c(F)c1 [(E)-4-(dibenzo[b,f][1,4]oxazepin-11-yl)-3-fluoro-N-hydroxybenzamide] |  |
| > 15 | 1 to 10 |  |  | O=C(NO)c1ccc(C2=Nc3ccccc3Oc3ccccc32)o1 [(E)-5-(dibenzo[b,f][1,4]oxazepin-11-yl)-N-hydroxyfuran-2-carboxamide] |  |
| 1 to 5 | < 0.05 |  |  | O=C(NO)c1ccc(C2=Nc3ccccc3Oc3ccccc32)s1 [(E)-5-(dibenzo[b,f][1,4]oxazepin-11-yl)-N-hydroxythiophene-2-carboxamide] |  |
| 5 to 15 | 0.1 to 1 |  |  | O=C(NO)c1ccc(C2=Nc3ccccc3Oc3ccccc32)nc1 [(E)-6-(dibenzo[b,f][1,4]oxazepin-11-yl)-N-hydroxynicotinamide] |  |
|  |  | 0.05 to 0.1 | < 1 | O=C(NO)c1ccc(/C=C/CN2C(=O)c3ccccc3Oc3ccccc32)cc1 [(E)-N-hydroxy-4-(3-(11-oxodibenzo[b,f][1,4]oxazepin-10(11H)-yl)prop-1-enyl)benzamide] |  |
| > 15 | < 0.05 |  |  | O=C(NO)c1ccc(-c2ccc3c(c2)C(N2CCOCC2)=Nc2ccccc2O3)cc1 [(E)-N-hydroxy-4-(11-morpholinodibenzo[b,f][1,4]oxazepin-2-yl)benzamide] |  |
|  |  | 0.1 to 1 | 5 to 15 | O=C(Cc1ccc(CN2c3ccccc3C=Cc3ccccc32)cc1)NO [(Z)-2-(4-((5H-dibenzo[b,f]azepin-5-yl)methyl)phenyl)-N-hydroxyacetamide] |  |
| > 15 | 0.1 to 1 |  |  | O=C(NO)c1cccc(C2=Nc3ccccc3Oc3ccccc32)c1 [(Z)-3-(dibenzo[b,f][1,4]oxazepin-11-yl)-N-hydroxybenzamide] |  |
| 5 to 15 | < 0.05 |  |  | O=C(NO)c1ccc(C2=Nc3ccccc3Oc3cccc(F)c32)cc1 [(Z)-4-(1-fluorodibenzo[b,f][1,4]oxazepin-11-yl)-N-hydroxybenzamide] |  |
| 5 to 15 | < 0.05 |  |  | O=C(NO)c1ccc(C2=Nc3ccccc3Oc3ccc(Cl)cc32)cc1 [(Z)-4-(2-chlorodibenzo[b,f][1,4]oxazepin-11-yl)-N-hydroxybenzamide] |  |
| 1 to 5 | < 0.05 |  |  | COc1cc(F)cc2c1Oc1ccccc1N=C2c1ccc(C(=O)NO)cc1 [(Z)-4-(2-fluoro-4-methoxydibenzo[b,f][1,4]oxazepin-11-yl)-N-hydroxybenzamide] |  |
| 1 to 5 | < 0.05 |  |  | O=C(NO)c1ccc(C2=Nc3ccccc3Oc3ccc(F)cc32)cc1 [(Z)-4-(2-fluorodibenzo[b,f][1,4]oxazepin-11-yl)-N-hydroxybenzamide] |  |
| > 15 | 0.1 to 1 |  |  | O=C(NO)c1ccc(C2=Nc3ccccc3Oc3cc(F)ccc32)cc1 [(Z)-4-(3-fluorodibenzo[b,f][1,4]oxazepin-11-yl)-N-hydroxybenzamide] |  |
| 5 to 15 | 0.1 to 1 |  |  | O=C(NO)c1ccc(C2=Nc3ccccc3Oc3c(F)cccc32)cc1 [(Z)-4-(4-fluorodibenzo[b,f][1,4]oxazepin-11-yl)-N-hydroxybenzamide] |  |
| 1 to 5 | 0.05 to 0.1 |  |  | O=C(NO)c1ccc(C2=Nc3ccccc3N(C3CC3)c3ccc(F)cc32)cc1 [(Z)-4-(5-cyclopropyl-2-fluoro-5H-dibenzo[b,e][1,4]diazepin-11-yl)-N-hydroxybenzamide] |  |
| 1 to 5 | 0.1 to 1 |  |  | O=C(NO)c1ccc(C2=Nc3ccccc3N(C3CC3)c3ccccc32)cc1 [(Z)-4-(5-cyclopropyl-5H-dibenzo[b,e][1,4]diazepin-11-yl)-N-hydroxybenzamide] |  |

| IC50 [1, 3] [µM] | IC50 ([2]; Table 8) [µM] | IC50 ([2]; Table 10) [µM] | IC50 [1, 5] [µM] | SMILES | IC50 [1, 4] [µM] |
| --- | --- | --- | --- | --- | --- |
| 1 to 5 | 0.05 to 0.1 |  |  | CCN1c2ccccc2N=C(c2ccc(C(=O)NO)cc2)c2ccccc21 [(Z)-4-(5-ethyl-5H-dibenzo[b,e][1,4]diazepin-11-yl)-N-hydroxybenzamide] |  |
| 1 to 5 | < 0.05 |  |  | O=C(NO)c1ccc(C2=Nc3ccccc3Cn3cccc32)cc1 [(Z)-4-(5H-benzo[e]pyrrolo[1,2-a][1,4]diazepin-11-yl)-N-hydroxybenzamide] |  |
| 1 to 5 | 0.1 to 1 |  |  | O=C(NO)c1ccc(C2=Nc3ccccc3Nc3ccccc32)cc1 [(Z)-4-(5H-dibenzo[b,e][1,4]diazepin-11-yl)-N-hydroxybenzamide] |  |
|  |  | 1 to 10 | 5 to 15 | O=C(CCCN1c2ccccc2C=Cc2ccccc21)NO [(Z)-4-(5H-dibenzo[b,f]azepin-5-yl)-N-hydroxybutanamide] |  |
| 5 to 15 | 0.05 to 0.1 |  |  | O=C(NO)c1ccc(C2=Nc3cccc(F)c3Oc3ccccc32)cc1 [(Z)-4-(6-fluorodibenzo[b,f][1,4]oxazepin-11-yl)-N-hydroxybenzamide] |  |
| 5 to 15 | 0.1 to 1 |  |  | O=C(NO)c1ccc(C2=Nc3ccc(Cl)cc3Oc3ccccc32)cc1 [(Z)-4-(7-chlorodibenzo[b,f][1,4]oxazepin-11-yl)-N-hydroxybenzamide] |  |
| 5 to 15 | < 0.05 |  |  | N#Cc1ccc2c(c1)Oc1ccccc1C(c1ccc(C(=O)NO)cc1)=N2 [(Z)-4-(7-cyanodibenzo[b,f][1,4]oxazepin-11-yl)-N-hydroxybenzamide] |  |
| 5 to 15 | 0.1 to 1 |  |  | O=C(NO)c1ccc(C2=Nc3cc(Cl)ccc3Oc3ccccc32)cc1 [(Z)-4-(8-chlorodibenzo[b,f][1,4]oxazepin-11-yl)-N-hydroxybenzamide] |  |
| 1 to 5 | 0.05 to 0.1 |  |  | N#Cc1ccc2c(c1)N=C(c1ccc(C(=O)NO)cc1)c1ccccc1O2 [(Z)-4-(8-cyanodibenzo[b,f][1,4]oxazepin-11-yl)-N-hydroxybenzamide] |  |
| 1 to 5 | 0.05 to 0.1 |  |  | O=C(NO)c1ccc(C2=Nc3cc(Cl)ccc3Nc3ccccc32)cc1 [(Z)-4-(8-oro-5H-dibenzo[b,e][1,4]diazepin-11-yl)-N-hydroxybenzamide] |  |
| 1 to 5 | 0.05 to 0.1 |  |  | O=C(NO)c1ccc(C2=Nc3c(F)cccc3Oc3ccccc32)cc1 [(Z)-4-(9-fluorodibenzo[b,f][1,4]oxazepin-11-yl)-N-hydroxybenzamide] |  |
| < 1 | < 0.05 |  |  | O=C(NO)c1ccc(C2=Nc3ccccc3N(C3CC3)c3ncccc32)cc1 [(Z)-4-(11-cyclopropyl-11H-benzo[b]pyrido[2,3-e][1,4]diazepin-5-yl)-N-hydroxybenzamide] |  |
| < 1 | < 0.05 |  |  | CCN1c2ccccc2N=C(c2ccc(C(=O)NO)cc2)c2cccnc21 [(Z)-4-(11-ethyl-11H-benzo[b]pyrido[2,3-e][1,4]diazepin-5-yl)-N-hydroxybenzamide] |  |
|  |  | < 0.05 | 5 to 15 | O=C(NO)c1ccc(CN2c3ccccc3C=Cc3ccccc32)cc1 [(Z)-4-((5H-dibenzo[b,f]azepin-5-yl)methyl)-N-hydroxybenzamide] |  |
| 1 to 5 | 0.05 to 0.1 |  |  | O=C(NO)c1ccc(C2=Nc3ccccc3Oc3ncccc32)cc1 [(Z)-4-(benzo[b]pyrido[3,2-f][1,4]oxazepin-5-yl)-N-hydroxybenzamide] |  |
| < 1 | 0.1 to 1 |  |  | O=C(NO)c1ccc(C2=Nc3ccccc3Oc3cnccc32)cc1 [(Z)-4-(benzo[b]pyrido[4,3-f][1,4]oxazepin-5-yl)-N-hydroxybenzamide] |  |
| 1 to 5 | < 0.05 |  |  | O=C(NO)c1ccc(C2=Nc3cccnc3Oc3ccccc32)cc1 [(Z)-4-(benzo[f]pyrido[2,3-b][1,4]oxazepin-6-yl)-N-hydroxybenzamide] |  |
| 1 to 5 | 0.1 to 1 |  |  | O=C(NO)c1ccc(C2=Nc3ccsc3Oc3ccccc32)cc1 [(Z)-4-(benzo[f]thieno[2,3-b][1,4]oxazepin-5-yl)-N-hydroxybenzamide] |  |
| 5 to 15 | 0.1 to 1 |  |  | O=C(NO)c1ccc(C2=Nc3ccccc3Oc3ccccc32)cc1F [(Z)-4-(dibenzo[b,f][1,4]oxazepin-11-yl)-2-fluoro-N-hydroxybenzamide] |  |

| SMILES | IC50 [1, 3] [µM] | IC50 ([2]; Table 8) [µM] | IC50 ([2]; Table 10) [µM] | IC50 [1, 5] [µM] | IC50 [1, 4] [µM] |
| --- | --- | --- | --- | --- | --- |
| O=C(/C=C/c1ccc(CN2C(=O)CN=C(c3ccccc3)c3ccccc32)cc1)NO [(E)-N-hydroxy-3-(4-(((Z)-2-oxo-5-phenyl-2,3-dihydro-1H-benzo[e][1,4]diazepin-1-yl)methyl)phenyl)acrylamide] |  |  | 0.05 to 0.1 |  | 1 to 5 |
| CN1C(=O)CN=C(c2ccccc2)c2ccc(/C=C/C(=O)NO)cc21 [(E)-N-hydroxy-3-((Z)-1-methyl-2-oxo-5-phenyl-2,3-dihydro-1H-benzo[e][1,4]diazepin-8-yl)acrylamide] |  |  | 0.1 to 1 |  | 1 to 5 |
| O=C(/C=C/c1ccc2c(c1)NC(=O)CN=C2c1ccccc1)NO [(E)-N-hydroxy-3-((Z)-2-oxo-5-phenyl-2,3-dihydro-1H-benzo[e][1,4]diazepin-8-yl)acrylamide] |  |  | 0.05 to 0.1 |  | 1 to 5 |
